Measurements: article PMC3660367, “MARCKS Protein Is Phosphorylated and Regulates Calcium Mobilization during Human Acrosomal Exocytosis” (PLoS ONE, 2013)

Assays:
[1] = system: phosphorylated MARCKS in human sperm; test: Phosphorylated MARCKS level in stimulated sperm by Western blot (anti-phospho-MARCKS); format: cell-based; conditions: non-permeabilized capacitated sperm; 100 µM 2-APB 15 min, then 20 min 10 µM A23187, 200 nM PMA or 15 µM progesterone; normalized against β-tubulin; three experiments
Procedure: To examine the presence of MARCKS and phosphorylated MARCKS, the fraction of motile sperm capacitated for 2–3 h in BSA supplemented-HTF medium was used. After removing the HTF by washing cells twice with cold PBS, sperm pellets were resuspended in sample buffer (2% SDS, 10% glycerol, and 62.5 mM Tris-HCl pH 6.8) without disulfide reducing agents. Proteins were extracted by heating three times to 95°C for 4 min each. Extracts were centrifuged (12,000×g) for 10 min, and the supernatants were adjusted to 5% β-mercaptoethanol. Protein were resolved on 10% polyacrylamide gels according to [23], and transferred to PVDF membranes (Millipore). Non-specific reactivity was blocked by incubation for 1 h at room temperature (RT) with 5% skim milk dissolved in tris-buffered saline with 0.1% Tween-20 (T-TBS: 50 mM Tris-HCl pH 7.4, 150 mM NaCl, 0.1% Tween-20). Blots were incubated with primary anti-MARCKS antibody from Abcam (0.26 µg/ml), anti-MARCKS N-19 from Santa Cruz (0.13 µg/ml), or anti-phospho-MARCKS (0.06 µg/ml), in blocking solution overnight at 4°C. Biotinylated, goat anti-mouse-IgG (0.076 µg/ml), biotinylated, rabbit anti-goat-IgG (0.4 µg/ml) or biotinylated, goat anti-rabbit-IgG (0.076 µg/ml) were used as secondary antibodies during 60 min incubations at RT. Blots were then incubated with peroxidase-conjugated streptavidin (0.17 µg/ml) during 60 min incubations at RT. Excess first and second antibodies, and peroxidase-conjugated streptavidin were removed by washing five times for 10 min each in T-TBS. For loading control blots were reprobed with anti-β-tubulin. […]
Figure 5 Assessing MARCKS function on acrosomal exocytosis in non-permeabilized sperm. […] The increase in fluorescence is expressed as (F/F0)-1 ((maximum fluorescence intensity/initial fluorescence)-1) versus time in seconds. […] (D) Quantification of three independent experiments. […] Phosphorylated MARCKS was detected by Western blot assay using an anti-phospho-MARCKS antibody. […]

[2] = system: acrosomal exocytosis in permeabilized human sperm; test: Acrosomal exocytosis assay in SLO-permeabilized human sperm (FITC-PSA lectin staining); format: cell-based; conditions: 1 µM MARCKS ED 15 min, then 50 µM PIP2 or 5 µM adenophostin, then 10 µM free Ca2+ or 200 nM PMA
Procedure: Acrosomal exocytosis assays were performed as previously described. Briefly, human semen obtained from normal healthy donors was allowed to liquefy for 30-60 min at 37°C. We used a swim-up protocol to isolate highly motile sperm under capacitating conditions in Human Tubal Fluid media (HTF, as formulated by Irvine Scientific, Santa Ana, CA) supplemented with 0.5% bovine serum albumin (BSA) for 1 h at 37°C in an atmosphere of 5% CO2/95% air. Sperm concentrations were adjusted to 5–10×10^6 cells/ml and incubated for at least 2 h under capacitating conditions. We have shown previously that human sperm incubated under these conditions are responsive to progesterone. […] Acrosomal status was evaluated by staining with FITC-coupled Pisum sativum agglutinin (FITC-PSA) according to [21]. At least 200 cells were scored using a Nikon Optiphot II microscope equipped with epifluorescence optics. […] For each experiment, acrosomal exocytosis indexes were calculated by subtracting the number of reacted spermatozoa in the negative control (range 10%–30%) from all values, and expressing the resulting values as a percentage of the acrosome exocytosis observed in the positive control (range 25%–40%). […] Data were evaluated using one-way ANOVA and post hoc tests (Dunnett's test or confident intervals). […]

Molecule | increase of phosphorylated MARCKS [1] [%] | rescue of MARCKS ED inhibition of acrosomal exocytosis [2]
CCCCCCCCCCCCCC(=O)O[C@@H]1[C@@H](C)[C@@]2(O)[C@@H](C=C(CO)C[C@]3(O)C(=O)C(C)=C[C@@H]23)[C@@H]2C(C)(C)[C@]12OC(C)=O [PMA, phorbol 12-myristate 13-acetate] | 60 | 
CNc1ccc2oc(C[C@H]3O[C@@]4(CC[C@H]3C)O[C@H]([C@H](C)C(=O)c3ccc[nH]3)[C@H](C)C[C@H]4C)nc2c1C(=O)O [A23187] | 50 | 
Phosphatidylinositol 4, 5-bisphosphate [PIP2] |  | able to recover the MARCKS ED inhibition
CC(=O)[C@H]1CC[C@H]2[C@@H]3CCC4=CC(=O)CC[C@]4(C)[C@H]3CC[C@]12C [progesterone] | 40 | 
Nc1ncnc2c1ncn2[C@@H]1O[C@H](CO)[C@@H](O[C@H]2O[C@H](CO)[C@@H](OP(=O)(O)O)[C@H](OP(=O)(O)O)[C@H]2O)[C@H]1OP(=O)(O)O [adenophostin, Adenophostin A] |  | rescued exocytosis impaired by MARCKS ED
